Experimental data as given in patent publication US20150025031A1, “METABOLIC DOWNREGULATION FOR CELL SURVIVAL” (WAKE FOREST UNIVERSITY HEALTH SCIENCES, priority 2012, published 2015).
Read-outs that look alike come from different tables or passages of the source.

Experiments:
C2C12 cells [1] = assay: Myotube formation of hypoxia-survived C2C12 cells; format: cell-based, murine; conditions: after 11 days adenosine under hypoxia, 2% horse serum medium 6 days
Description: After C2C12 cells that survived the hypoxic stress in the presence of adenosine were transferred to normoxic conditions without further supply of adenosine, they were cultured continuously for 3 days in the growth medium followed by 2% horse serum-containing medium for another 6 days. […] Nuclei were counterstained with DAPI (Vector). Photomicrographs were obtained using a Leica inverted fluorescence microscope. Myotube formation was also observed by Giemsa staining (1:20, Sigma-Aldrich) using a Zeiss upright light microscope.

[2] = system: Rat tibialis anterior (TA) muscle tissues; assay: In vitro ischemic tibialis anterior muscle tissue survival (H&E, TUNEL); format: cell-based, Sprague Dawley rats; conditions: 5 mM injected, 3 days incubation
Description: Rat tibialis anterior (TA) muscle tissues were dissected immediately after sacrifice of Sprague Dawley rats (17 weeks old, 380-400 g, Harlan), injected with blank, 5 mM of adenosine or cladribine, and then incubated in 5 mL of complete media for 3 days.
The tissue samples were fixed in 10% neutral buffered formalin (Sigma-Aldrich), 6 μm sections were generated by a cryotome (Leica), and stained with hematoxyline and eosin (H&E) and with TUNEL staining. Microscopic analyses were performed using a light microscope (Zeiss M1) and ImagePro software.

C2C12 murine myoblasts = assay: C2C12 cell counts (PicoGreen dsDNA) under 0.1% hypoxia, then normoxia; format: cell-based
Description: C2C12 murine myoblasts (ATCC) were cultured in a growth medium containing Dulbecco's modified Eagle's medium (DMEM, Gibco) supplemented with 10% FBS, 500 U/mL penicillin and 500 μg/mL streptomycin.
(§1) Hypoxic condition was maintained with a gas mixture containing 0.1% O2, 5% CO2 and 94.9% N2 at 37° C. and full humidity in an X-Vivo System (Biospherix). […] The hypoxic groups were then placed to the hypoxic chamber and incubated up to day 11, whereas the normoxic group continued to be incubated in the regular incubator. No medium change was made on both normoxic and hypoxic groups up to day 11. After transfer to normoxic conditions, cells were cultured in the regular incubator with an exchange of no adenosine-containing, fresh medium every third day.
Cell proliferation of each group was determined by a Quanti-iT PicoGreen dsDNA Kit (Invitrogen). After washed with PBS, cells were lysed with 55 μL of RIPA buffer (Sigma) on ice for 5 min, then the supernatants were mixed with an equal volume of PicoGreen dsDNA quantitation reagent, a fluorescent DNA dye (excitation at 480 nm; emission at 520 nm). The DNA content was quantified using a SpectraMax M5 microplate reader (Molecular Devices). The number of cells was calculated using a standard curve plotted from fluorescent readings of serial dilutions of a known concentration of cells.
Cell viability was visualized using a calcein AM (Invitrogen) where viable cells fluoresce green through the reaction of calcein AM.

C2C12 cells [3] = assay: Intracellular ATP level of C2C12 cells under hypoxia; format: cell-based, murine; conditions: 5 mM adenosine
Description: as §1
Intracellular ATP was measured by using the ATP Bioluminescence Assay Kit HS II (Roche Applied Science). Cells were lysed with 50 μL of lysis buffer and transferred into a well, then 50 μl of luciferase reagent was added to it. After mixing, the light emitted was measured and integrated for 10 seconds by using a SpectraMax M5 luminometer (Molecular Devices). The blank value (from a well containing no ATP) was subtracted from each sample's raw data. ATP concentrations were calculated from the linear part of the standard curve prepared with serial dilutions of a known concentration of ATP and expressed as moles per cell. This, in turn, was re-calculated to a percent ATP of that expressed in the cells grown under normoxic condition.

C2C12 mouse myoblasts [4] = conditions: 5 mM
C2C12 cells [5] = assay: MTS metabolic activity per cell, C2C12 under 0.1% hypoxia; format: cell-based, murine; conditions: 5 mM adenosine
Description: as §1
Mitochondrial metabolic activity of viable cells was assessed using a 3-(4,5-dimethylthiazol-2-yl)-5-(3-carboxymethoxyphenyl)-2-(4-sulfophenyl)-2H-tetrazolium (MTS) assay (Promega). Cells were rinsed with PBS three times followed by the addition of 120 μL of MTS reagent to each well. After an hour of incubation, optical density (OD) of a brown formazan product by dehydrogenase enzymes in metabolically active cells was measured with a microplate reader at 490 nm. The mean OD value obtained from media blanks was standardized as […]. For some analyses, metabolic activity measured at each time point was normalized by the cell number obtained from PicoGreen assay as previously described. The total metabolic activity represented by the area under the curve over time was computed using Origin Pro v. 8 (Origin Lab Corporation).

C2C12 mouse myoblasts [6] = conditions: 5 mM; for cellular metabolism under hypoxia: MTS
Soleus muscle tissues = assay: Survival of soleus muscle tissue under hypoxia (H&E, EthD-1 dead assay); format: cell-based, Sprague Dawley rats; conditions: 5 mM adenosine, 10 days hypoxic culture
Description: Soleus muscle tissues dissected immediately after sacrifice of Sprague Dawley rats (17 weeks old, 380-400 g, Harlan) were assigned to one of three groups in the growth medium: (1) native tissue group (2) no adenosine-treated hypoxic group and (3) hypoxic group with 5 mM adenosine supplemented in 2 mL of medium. The media was changed every third day. At day 10, a half of the tissue sample was fixed in 10% neutral buffered formalin (Sigma-Aldrich), 6 μm sections were generated by a cryotome (Leica), and stained with hematoxyline and eosin (H&E). Microscopic analysis was performed using a light microscope (Zeiss). Dead assay was assessed on the remaining tissues using 4 μM ethidium homodimer-1 (EthD-1, Invitrogen) to stain dead cells with damaged cell membranes. The stained sections were observed using a fluorescent microscope (Leica). The number of dead cells was quantitated using the “analyze particle” method with Image J software (U.S. National Institute of Health) on the fluorescence images, and its percentage was calculated based on the number of DAPI-stained cells on each section.

[7] = system: C2C12 cells, murine myoblasts; assay: MTS metabolic activity of C2C12 cells under hypoxia with adenosine (Example 1); format: cell-based
Description: Another group receiving daily doses of adenosine ([…], achieved by serial dilution) was incubated for up to 7 days under hypoxia and then placed back into normoxic conditions without additional supply of adenosine. Adenosine was refreshed by the daily exchange of media in which adenosine was completely dissolved. Media to be used under hypoxia was placed in the hypoxic chamber 24 hr prior to use for deoxygenation down to 2% O2. The metabolic activity of viable cells at each pre-determined time point was assessed using an MTS assay, which measures mitochondrial activity of cells.

In the case of `Nc1ncnc2c1ncn2[C@@H]1O[C@H](CO)[C@@H](O)[C@H]1O` [adenosine], the “myotube formation (differentiating capability)” value (C2C12 cells [1]) is reported as “showed capability of forming myotubes”, the “number of live nuclei (TUNEL)” value [2] is reported as “slightly increased live nuclei” and the “growth recovery after transfer to normoxic conditions” value (C2C12 murine myoblasts; 0.05 mM adenosine, after 11 days 0.1% hypoxia) is reported as “never recovered even after transfer to normoxic conditions”. For the same compound, the “number of cells maintained after 11 days of hypoxic stress” value (C2C12 murine myoblasts; 1, 2 and 5 mM adenosine, 0.1% hypoxia, day 11) was “two to four”, the “proliferation after transfer to normal oxygen tension” value (C2C12 murine myoblasts; 1, 2 and 5 mM adenosine, after 11 days 0.1% hypoxia) was “resumed their proliferation at a growth rate comparable to that in normoxic cells” and the “most effective adenosine concentration” value (C2C12 murine myoblasts; C2C12 survival, 0.1% hypoxia) was 5 mM. The “time for onset of re-proliferation” value (C2C12 murine myoblasts; after transfer to normoxia, 1, 2, 5 mM) was “concentration-dependent”, the “intracellular ATP level, percentage of that in normoxic cells” value (C2C12 cells [3]; 0.1% hypoxia, day 11) was 18% and the “intracellular ATP level vs control cells” value (C2C12 cells [3]; throughout the hypoxic duration, p<0.05) was “consistently higher ATP level”. The “proliferation after drug and hypoxia removed” value (C2C12 mouse myoblasts [4]; treated with ADA) was “failed to revive after the hypoxia and drug was removed”, the “proliferation after drug and hypoxia removed” value (C2C12 mouse myoblasts [4]; used alone (no ADA)) was “started to regain their normal proliferation” and the “cell population under hypoxic condition” value (C2C12 mouse myoblasts [4]; used alone (no ADA), 7 days hypoxia) was “maintain cell population significantly lower than the no treatment control”. The “metabolic activity in early hypoxic phase” value (C2C12 cells [5]; 0.1% hypoxia, MTS per cell) was “suppressed initially up to day 5”, the “metabolic activity maintained, of the initial metabolic activity” value (C2C12 cells [5]; 0.1% hypoxia, day 11, MTS per cell) was “approximately 68%” and the “metabolic activity after transfer to normoxic conditions” value (C2C12 cells [5]; after 11 days hypoxia) was “restored to a level equivalent to that in normoxic cells”. For the same compound, the “cellular metabolism under hypoxia” value (C2C12 mouse myoblasts [6]; treated with ADA) was “failed to reduce cellular metabolism and showed increased metabolic activity when compared to control”, the “metabolism after drug and hypoxia removed” value (C2C12 mouse myoblasts [6]; used alone (no ADA)) was “recovered normal metabolism” and the “cellular metabolism under hypoxia” value (C2C12 mouse myoblasts [6]; used alone (no ADA)) was “minimized cellular metabolism”. The “degree of muscle damage (H&E)” value (Soleus muscle tissues) was “tissues cultured without adenosine showed more damage than those treated with 5 mM adenosine”, the “dead cells as percentage of number of DAPI-stained cells” value (Soleus muscle tissues; EthD-1) was 46% and the “restoration of normal proliferation rate after long-term exposure” value ([7]; 22 days under adenosine, various doses) was “still demonstrated the ability to restore its normal proliferation rate”. The “cellular (metabolic) activity under hypoxic conditions” value ([7]; C2C12, 0.1% O2, daily adenosine up to 7 days, MTS) was “maintained a steady state of cellular activity”, the “minimum effective concentration of adenosine” value ([7]; C2C12, 0.1% O2 hypoxia, MTS metabolic activity) was “about 1 mM” and the “resumption of normal metabolic activity after adenosine removal” value ([7]; adenosine removed at day 7, back to normoxia) was “resumed their normal metabolic activity two days after adenosine was removed at day 7”.
